Reference: patent US9333233B2, “Methods and compositions for the delayed treatment of stroke” (TARIX PHARMACEUTICALS LTD., priority 2014, dated 2016)

Experiments:
Format in all cases: in vivo
[1] = tested on: rat Transient Middle Cerebral Artery Occlusion (tMCAO) model; test: Body swing test in rat tMCAO stroke model
Description: (§1) Transient middle cerebral artery occlusion was performed according to the method described R. Schmid-Eisaesser et al. Briefly, the right CCA (Common Carotid Artery) was exposed through a midline neck incision and carefully dissected free from surrounding nerves and fascia —from its bifurcation to the base of the skull. The occipital artery branches of the ECA (External Carotid Artery) were then isolated, and these branches were dissected and coagulated. The ECA was dissected further distally and coagulated along with the terminal lingual and maxillary artery branches, which was then divided. The ICA (Internal Carotid Artery) was isolated and carefully separated from the adjacent vagus nerve, and the pterygopalatine artery was ligated close to its origin with a 5-0 nylon suture (SMI, Belgium). Next a 4-0 silk suture was tied loosely around the mobilized ECA stump, and a 4 cm length of 4-0 monofilament nylon suture (the tip of the suture was blunted by using a flame, and the suture was coated with polylysine, prior to insertion) was inserted through the proximal ECA into the ICA and thence into the circle of Willis, effectively occluding the MCA. The surgical wound was closed and the animals were returned to their cages to recover from anesthesia. One hour and a half after occlusion rats were re-anesthetized, the monofilament was withdrawn to allow reperfusion, the surgical wound was closed and rats were returned to their cages.
Animals were also subjected to a body swing test. Each rat was held approximately one inch from the base of its tail. It was then elevated to an inch above a surface of a table. The rat was held in the vertical axis, defined as no more than 10° to either the left or the right side. A swing was recorded whenever the rat moved its head out of the vertical axis to either side. Before attempting another swing, the rat had to return to the vertical position for the next swing to be counted, Twenty (20) total swings were counted. A normal rat typically has an equal number of swings to either side. Following focal ischemia, the rat tends to swing to the contralateral side (left side in this Example). Body swing scores were expressed as a percentage of […] over total swings.
Animals were also subjected to a body swing test as described in Example 1 on days 29, 43, 50, 57, 64 and 71.
Animals were also subjected to a body swing test as described in Example 1 on days 29, 43, 50, 57, 64, 71, 78 and 85.

[2] = tested on: rat Transient Middle Cerebral Artery Occlusion (tMCAO) model; test: Limb placement test in rat tMCAO stroke model
Description: as §1
Animals were subjected to a limb placement test. The limb placing tests were divided into both forelimb and hindlimb tests. For the forelimb-placing test, the examiner held the rat close to a tabletop and scored the rat's ability to place the forelimb on the tabletop in response to whisker, visual, tactile or proprioceptive stimulation. Similarly, for the hindlimb placing test, the examiner assessed the rat's ability to place the hindlimb on the tabletop in response to tactile and proprioceptive stimulation. Separate sub-scores are obtained for each mode of sensory input and added to give total scores (for the forelimb placing test: 0=normal, 12=maximally impaired; for the hindlimb placing test: 0=normal; 6=maximally impaired). Scores were given in half-point increments (see below).
Forelimb placing test (0-12);
Visual placing (forward (0-2), sideways (0-2))
Tactile placing (dorsal (0-2), lateral (0-2))
Proprioceptive placing (0-2)
Animals were also subjected to a limb placement test as described in Example 1 on days 29, 43, 50, 57, 64 and 71.
Animals were also subjected to a limb placement test as described in Example 1 on days 29, 43, 50, 57, 64, 71, 78 and 85.

[3] = tested on: rat Transient Middle Cerebral Artery Occlusion (tMCAO) model; test: Stepping test (forelimb akinesia) in rat tMCAO stroke model
Description: as §1
Animals were tested for forelimb akinesia in a stepping test (ST). The animal was held by its hind limbs fixed with one hand and the forelimb not to be monitored with the other, while the unrestrained fore-paw touched the table. The number of adjusting steps were counted while the animal is moved, sideways along the table surface (85 cm in approximately five seconds), in the forehand & backhand direction for both forelimbs.
Animals were also tested for forelimb akinesia in a stepping test (ST) as described in Example 1 on days 29, 43, 50, 57, 64 and 71.
Animals were also tested for forelimb akinesia in a stepping test (ST) as described in Example 1 on days 29, 43, 50, 57, 64, 71, 78 and 85.

[4] = tested on: rat Transient Middle Cerebral Artery Occlusion (tMCAO) model; test: Cylinder test of motor function in rat tMCAO stroke model; conditions: Example 2; 50 μg/kg SC daily from day 29; day 57 (day 26 all animals ~0.3; vehicle day 57 ~0.4)
Description: Transient middle cerebral artery occlusion was performed according to the method described R. Schmid-Eisaesser et al. Briefly, the right CCA (Common Carotid Artery) was exposed through a midline neck incision and carefully dissected free from surrounding nerves and fascia —from its bifurcation to the base of the skull. The occipital artery branches of the ECA (External Carotid Artery) were then isolated, and these branches were dissected and coagulated. The ECA was dissected further distally and coagulated along with the terminal lingual and maxillary artery branches, which was then divided. The ICA (Internal Carotid Artery) was isolated and carefully separated from the adjacent vagus nerve, and the pterygopalatine artery was ligated close to its origin with a 5-0 nylon suture (SMI, Belgium). […]
The number of wall contacts performed independently with the left and right forepaw were counted and noted up to a total of 20 wall contacts per animal per session, and only supporting contacts were counted (i.e., full appositions of the paws with open digits to the cylinder walls).

[5] = tested on: rat Transient Middle Cerebral Artery Occlusion (tMCAO) model; test: Neuroscore (Modified Neurological Rating Scale, mNRS) in rat tMCAO stroke model
Description: as §1
Animals were subjected to the mNSS test (Neuroscore) at Day 2, 24 hours post reperfusion. Only animals with an overall score of ≧10 were included in this Example.
Each animal was also subjected to a neuroscore test. The Modified Neurological Rating Scale (mNRS), or Neuroscore, was performed before the operation, on Day 2 and on Day 15, Day 22, Day 29, Day 36 Day 43 and Day 50. The individual making the behavioral assessments was unaware of the drug/dose given (blind test). A total Neuroscore of 18 was possible, with higher scores correlating to worse functioning.
(§2) As in Example 1, each animal was subjected to a neuroscore test. The Modified Neurological Rating Scale (mNRS), or Neuroscore, was performed before the operation as described in Example 1 on day 2, day 29, day 43, day 50, day 57, day 64 and day 71. The individual making the behavioral assessments was unaware of the drug/dose given (blind test).
as §2, with “Examples 1 and 2,” for “Example 1,”, “64, day 71. Day 78,” for “64”, “85.” for “71.”

[6] = tested on: rat Transient Middle Cerebral Artery Occlusion (tMCAO) model; test: Blood vessel diameter (Flow-R Laser Doppler) in rat tMCAO stroke model
Description: as §1
(§3) Evaluation of the blood flow in the brain cortex and vessel constriction was carried out using a Flow-R Laser Doppler system, in which intracranial blood flow and vessel diameter (constriction/dilation) was monitored.

[7] = tested on: rat Transient Middle Cerebral Artery Occlusion (tMCAO) model; test: Blood flow in the brain cortex (Flow-R Laser Doppler) in rat tMCAO stroke model; conditions: for enhanced blood flow as compared to vehicle controls: Example 1 first phase, day 50
Description: as §1, §3

[8] = Example 3, SC daily from day 29, TXA127 100-1,000 μg/kg, TXA302 1-500 μg/kg, by day 43
[9] = Example 3, SC daily from day 29, TXA127 100-1,000 μg/kg, TXA302 1-500 μg/kg, by day 43, maintained or improved through day 85
[10] = Example 3, SC daily from day 29, TXA127 100-1,000 μg/kg, TXA302 1-500 μg/kg, by day 43, maintained through Day 85
[11] = Example 3, SC daily from day 29, TXA127 100-1,000 μg/kg, TXA302 1-500 μg/kg, by day 43, maintained through day 85
[12] = Example 1 second phase, 500 ug/kg SC from day 51, measured day 108

Substance: Ala^1-Arg^2-Val^3-Ser^4-Ile^5-His^6-Cys^7 (ARVSIHC) [TXA302, angiotensin (1-7) peptide]
- performance in body swing test ([1]; Example 2, 50 μg/kg SC daily from day 29, by day 50, maintained through Day 71): statistically significant improvement in performance
- performance in body swing test [1, 8]: statistically significant improvement in performance
- performance in limb placement test as compared to vehicle control animals ([2]; Example 2, 50 μg/kg SC daily from day 29, by day 43, maintained or improved through day 71): statistically significant improvements in performance
- performance in limb placement test as compared to vehicle control animals [2, 9]: statistically significant improvements in performance
- performance in stepping test as compared to vehicle control animals ([3]; Example 2, 50 μg/kg SC daily from day 29, by day 43, maintained through Day 71): significant improvement in performance
- performance in stepping test as compared to vehicle control animals [3, 10]: significant improvement in performance
- cylinder test ratio of left paw to right paw contacts [4]: ~0.75
- neuroscore as compared to vehicle control animals ([5]; Example 2, 50 μg/kg SC daily from day 29 (28 days post-tMCAO), by day 43, maintained through day 71): statistically significant reduction in neuroscore
- neuroscore as compared to vehicle control animals [5, 11]: statistically significant reduction in neuroscore

Substance: Asp^1-Arg^2-Val^3-Tyr^4-Ile^5-His^6-Pro^7 (DRVYIHP; listed as Homo sapiens) [TXA127]
- performance in body swing test ([1]; Example 1 first phase, 100, 300, 500 μg/kg SC or Alzet, started 24 hours after tMCAO, by day 15, statistical significance by day 22 in some groups, day 29 in all treatment groups): improvement in performance
- performance in body swing test ([1]; Example 1 second phase, 500 ug/kg SC daily from day 51, as early as day 58, maintained throughout observation period): trend toward improved performance
- performance in body swing test [1, 8]: statistically significant improvement in performance
- improvement in blood vessel diameter as compared to vehicle controls ([6]; Example 1 first phase, continuous infusion via Alzet pump, day 50): ~40%
- enhanced blood vessel diameter, larger than vehicle control animals ([6]; Example 1 first phase, subcutaneously administered, each treatment group (100, 300, 500 μg/kg), day 50): approximately 20%
- vessel diameter as compared to vehicle control group [6, 12]: improved
- enhanced blood flow as compared to vehicle controls ([7]; continuous infusion via Alzet pump): ~30%
- enhanced blood flow as compared to vehicle controls ([7]; subcutaneously administered, each treatment group): ~35%
- blood flow ratio as compared to vehicle control group [7, 12]: improved
- performance in forelimb placement test as compared to vehicle control ([2]; Example 1 first phase, 100, 300, 500 μg/kg SC or Alzet, started 24 hours after tMCAO, all treatment groups by day 15, continued through day 50): statistically significant improvements in performance
- performance in forelimb placement test ([2]; Example 1 second phase, 500 ug/kg SC daily from day 51, beginning on day 72, trend as early as day 58): statistically significant improvement in performance
- performance in limb placement test as compared to vehicle control animals [2, 9]: statistically significant improvements in performance
- performance in stepping test as compared to vehicle control animals ([3]; Example 1 first phase, 100, 300, 500 μg/kg SC or Alzet, started 24 hours after tMCAO, all treatment groups by day 22): significant improvement in performance
- performance in stepping test as compared to vehicle control group ([3]; Example 1 second phase, 500 ug/kg SC daily from day 51, by day 65, increasing significance by day 86): statistically significant improvement in performance
- performance in stepping test as compared to vehicle control animals [3, 10]: significant improvement in performance
- neuroscore as compared to vehicle control animals ([5]; Example 1 first phase, 100, 300, 500 μg/kg SC daily or Alzet pump, started 24 hours after tMCAO, all treatment groups by day 15, maintained through day 50): statistically significant reduction in neuroscore
- neuroscore as compared to vehicle control animals ([5]; Example 1 second phase, 500 ug/kg SC daily, first treatment day 51 after tMCAO, by day 65): statistically significant improvement
- neuroscore as compared to vehicle control animals [5, 11]: statistically significant reduction in neuroscore
